# Assay results taken from patent US11752139B2, “Therapeutic combinations of orally administered irinotecan and a p-gp inhibitor for the treatment of cancer” (priority 2018, dated 2023).
# Where two headings read alike, the source gives them in different places.
# Key:
# [1] = Study 1: maximum tolerated dose of orally administered irinotecan with Compound A; format: in vivo, human; conditions: dosed five days of week one during a three-week cycle
# Description: Orally administered irinotecan was determined to have a maximum tolerated dose (MTD) of 20 mg/m^2 per day when dosed five days of week one during a three-week cycle.
# [2] = Study 2: pharmacokinetics of oral irinotecan and M1, 5-20 mg/m^2 per day for 10 days during a 21 day cycle; conditions: for AUC / Cmax: human, in vivo, oral, mean
# clinical [3] = conditions: human, in vivo, po, N = 3; for AUC(0-t): AUC24 h
# Description: (§1) A phase 1 dose escalation study was performed to determine the MTD and DLT of orally administered irinotecan in combination with 15 mg (on day 1 of a 21-day cycle) of HM30181A. The study was performed on cohorts of 3-6 subjects with advanced malignancies. Subjects had Hb (hemoglobin count) 9 gm/dL, ANC (absolute neutrophil count) 1.5×10^9/L, and platelets 100×10^9/L, as well as adequate hepatic and renal function, and ECOG (Eastern Cooperative Oncology Group Performance Status) 0-1, and were not homozygous for UGT1A1*28.
# [4] = Study 1: pharmacokinetics of oral irinotecan and M1, 5-30 mg/m^2 per day for five days during a 21 day cycle
# clinical [5] = conditions: human, in vivo
# [6] = Study 2: maximum tolerated dose of orally administered irinotecan with Compound A; format: in vivo, human; conditions: dosed five days of week one and week two during a three-week cycle
# Description: Orally administered irinotecan was determined to have a MTD of 10 mg/m^2 per day when dosed five days of week one and week two during a three-week cycle.
# [7] = Simple Emax model of exposure (AUCinf, Cmax) versus dose
# [8] = human, in vivo
# advanced malignancies = experiment: Phase 1 dose escalation study of oral irinotecan with 15 mg HM30181A: response; format: in vivo, human; conditions: subjects with advanced malignancies; 15 mg HM30181A + oral irinotecan
# Description: as §1
# clinical [9] = conditions: human, in vivo; remark: listed apart in the source
# [10] = human, in vivo; remark: listed apart in the source
# [11] = dose 240 mg/m^2 oral irinotecan + 15 mg HM30181A
# [12] = dose 280 mg/m^2 oral irinotecan + 15 mg HM30181A
# [13] = dose 320 mg/m^2 oral irinotecan + 15 mg HM30181A
# [14] = 15 mg HM30181A + 20-320 mg/m^2 oral irinotecan, day 1 of 21-day cycle, 30 patients
# [15] = 15 mg HM30181A + 20-320 mg/m^2 oral irinotecan, 30 patients
# [16] = 320 mg/m^2 dose level, with 15 mg HM30181A
structure (smiles),measurement,setting,value
"CCc1c2c(nc3ccc(OC(=O)N4CCC(N5CCCCC5)CC4)cc13)-c1cc3c(c(=O)n1C2)COC(=O)[C@]3(O)CC [oral irinotecan, (4S)-4,11-Diethyl-4-hydroxy-3,14-dioxo-3,4,12,14-tetrahydro-1H-pyrano[3′,4′:6,7]indolizino[1,2-b]quinolin-9-yl 1,4′-bipiperidine-1′-carboxylate, reference compound]",maximum tolerated dose (MTD),[1],20 mg/m^2 per day
same,pharmacokinetics versus dose,[2]; 5-20 mg/m^2 per day for 10 days during a 21 day cycle,increased proportionally with dose
same,AUC,"[2]; 5 mg/m2, AUC24, Day 1, dose group 5 mg/m^2",72.1 ng·h/mL
same,AUC,"[2]; 5 mg/m2, AUC24, Day 12, dose group 5 mg/m^2",95.1 ng·h/mL
same,Cmax,"[2]; 5 mg/m2, Cmax, Day 1, dose group 5 mg/m^2",9.65 ng/mL
same,AUC,"[2]; 10 mg/m2, AUC24, Day 1, dose group 10 mg/m^2",123 ng·h/mL
same,AUC,"[2]; 10 mg/m2, AUC24, Day 12, dose group 10 mg/m^2",186 ng·h/mL
same,Cmax,"[2]; 10 mg/m2, Cmax, Day 1, dose group 10 mg/m^2",15.5 ng/mL
same,Cmax,"[2]; 10 mg/m2, Cmax, Day 12, dose group 10 mg/m^2",17.9 ng/mL
same,AUC,"[2]; 15 mg/m2, AUC24, Day 1, dose group 15 mg/m^2",284 ng·h/mL
same,AUC,"[2]; 15 mg/m2, AUC24, Day 12, dose group 15 mg/m^2",281 ng·h/mL
same,Cmax,"[2]; 15 mg/m2, Cmax, Day 1, dose group 15 mg/m^2",26.9 ng/mL
same,Cmax,"[2]; 15 mg/m2, Cmax, Day 12, dose group 15 mg/m^2",38.1 ng/mL
same,AUC,"[2]; 20 mg/m2, AUC24, Day 1, dose group 20 mg/m^2",271 ng·h/mL
same,AUC,"[2]; 20 mg/m2, AUC24, Day 12, dose group 20 mg/m^2",442 ng·h/mL
same,Cmax,"[2]; 20 mg/m2, Cmax, Day 1, dose group 20 mg/m^2",28.8 ng/mL
same,Cmax,"[2]; 20 mg/m2, Cmax, Day 12, dose group 20 mg/m^2",64.6 ng/mL
same,AUC(0-t),clinical [3]; [11],6960 ng·h/mL
same,AUC(0-t),clinical [3]; [12],6040 ng·h/mL
same,AUC(0-t),clinical [3]; [13],11300 ng·h/mL
same,Cmax,clinical [3]; [11],798 ng/mL
same,Cmax,clinical [3]; [12],763 ng/mL
same,Cmax,clinical [3]; [13],1060 ng/mL
same,Tmax,clinical [3]; [11],3 h
same,Tmax,clinical [3]; [12],2 h
same,Tmax,clinical [3]; [13],3 h
same,pharmacokinetics versus dose,[4]; 5-30 mg/m^2 per day for five days during a 21 day cycle,increased proportionally with dose
same,AUC,"[4]; human, in vivo, 20 mg/m2",412 ng·h/mL
same,AUC,"clinical [5]; 5 mg/m2, AUC24",50.9 ng·h/mL
same,Cmax,"clinical [5]; 5 mg/m2, Cmax",6.52 ng/mL
same,AUC,"clinical [5]; 10 mg/m2, AUC24",110 ng·h/mL
same,Cmax,"clinical [5]; 10 mg/m2, Cmax",14 ng/mL
same,AUC,"clinical [5]; 15 mg/m2, AUC24",194 ng·h/mL
same,Cmax,"clinical [5]; 15 mg/m2, Cmax",20.6 ng/mL
same,AUC,"clinical [5]; 20 mg/m2, AUC24",277 ng·h/mL
same,Cmax,"clinical [5]; 20 mg/m2, Cmax",31.9 ng/mL
same,AUC,"clinical [5]; 25 mg/m2, AUC24",703 ng·h/mL
same,Cmax,"clinical [5]; 25 mg/m2, Cmax",63.6 ng/mL
same,AUC,"clinical [5]; 30 mg/m2, AUC24",736 ng·h/mL
same,Cmax,"clinical [5]; 30 mg/m2, Cmax",57.3 ng/mL
same,MTD,[6],10 mg/m^2 per day
same,Predicted AUCinf,[7]; dose 200 mg/m^2,6992
same,Predicted Cmax,[7]; dose 200 mg/m^2,549
same,Predicted AUCinf,[7]; dose 240 mg/m^2,7679
same,Predicted Cmax,[7]; dose 240 mg/m^2,600
same,Predicted AUCinf,[7]; dose 280 mg/m^2,8253
same,Predicted Cmax,[7]; dose 280 mg/m^2,643
same,Predicted AUCinf,[7]; dose 320 mg/m^2,10189
same,Predicted Cmax,[7]; dose 320 mg/m^2,752
same,Cmax compared with IV dosed irinotecan,[8],below the range for 125 mg/m^2 of IV dosed irinotecan
same,dose at which Cmax began to plateau,[8],200 mg/m^2
same,Tmax,"[8]; po, 280 mg/m2",1 h
same,response of stable disease,advanced malignancies,9 out of 21
same,Cmax,"clinical [9]; 240 mg/m2, Observed Mean (Cmax)",798 ng/mL
same,AUC0-inf,"clinical [9]; 240 mg/m2, Observed Mean AUCinf",8150 ng·h/mL
same,Cmax,"clinical [9]; 280 mg/m2, Observed Mean (Cmax)",763 ng/mL
same,AUC0-inf,"clinical [9]; 280 mg/m2, Observed Mean AUCinf",6980 ng·h/mL
same,Cmax,"clinical [9]; 320 mg/m2, Observed Mean (Cmax)",1060 ng/mL
same,AUC0-inf,"clinical [9]; 320 mg/m2, Observed Mean AUCinf",14200 ng·h/mL
same,Cmax,"clinical [9]; po, 240 mg/m2, Cmax",668 ng/mL
same,Tmax,"clinical [9]; po, 240 mg/m2, Tmax",3 h
same,AUC,"clinical [9]; po, 280 mg/m2, AUC24",5020 ng·h/mL
same,AUC0-inf,"clinical [9]; po, 280 mg/m2, AUCinf",6010 ng·h/mL
same,AUC(0-t),"clinical [9]; po, 280 mg/m2, AUClast",5890 ng·h/mL
same,Cmax,"clinical [9]; po, 280 mg/m2, Cmax",736 ng/mL
same,Tmax,"clinical [9]; po, 320 mg/m2, Tmax",3 h
same,Acute cholinergic diarrhea,15 mg HM30181A + 20-320 mg/m^2 oral irinotecan,not observed
same,"Treatment-related Grade 3-4 AEs, number of subjects",[14],12 subjects
same,"Treatment-related Grade 3-4 AEs, share of subjects",[14],40%
same,"SAEs nausea or vomiting, number of subjects",[15],4 subjects
same,"Treatment-related SAEs, number of patients",[15],6 patients
same,"vomiting (most common AEs), share of subjects",[15],20%
same,"DLTs, number of subjects",[16],2 subjects
same,kind of DLTs,[16],neutropenia and C. Difficile diarrhea
same,AUC24,[10]; 5 mg/m2,64.59 ng·h/mL
same,AUC24,[10]; 10 mg/m2,209.12 ng·h/mL
same,AUC24,[10]; 15 mg/m2,379.56 ng·h/mL
same,AUC24,[10]; 25 mg/m2,481.39 ng·h/mL
same,AUC24,[10]; 30 mg/m2,454.54 ng·h/mL
